Reference: PubChem BioAssay AID1963848 (Molecular Pharmacology Branch, DTP, NCI, 2024)

Test system: 379773-124-R-J2-PDC spheroid viability
Assay: Anticancer human tumor 379773-124-R-J2-PDC patient-derived endometrial carcinoma cell line growth inhibition [POLQ]
Conditions: spheroids with HUVEC and MSC; for IC50: curve of first compound; for viability, T/C: stronger effect = lower value
Procedure, shortened: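 Three-cell-type spheroids modelling solid tumor plus stroma served as the readout system; POL inhibitors were tested individually and in combination, concentration ranges set by clinical Cmax where known.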
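Note: spheroids exposed to drugs for seven days before readout.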
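Throughout, for viability, T/C: percent viability relative to DMSO vehicle control taken as 100%.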

CC(=O)O[C@H]1C(=O)[C@@]2(C)[C@H]([C@H](OC(=O)c3ccccc3)[C@]3(O)C[C@H](OC(=O)[C@H](O)[C@@H](NC(=O)c4ccccc4)c4ccccc4)C(C)=C1C3(C)C)[C@]1(OC(C)=O)CO[C@@H]1C[C@@H]2O + COC1C(OC(N)=O)C(O)C(Oc2ccc3c(O)c(NC(=O)c4ccc(O)c(CC=C(C)C)c4)c(=O)oc3c2C)OC1(C)C
IC50 (second compound 0.0316 µM): < 9.49 nM
IC50 (second compound 0.1 µM): < 9.49 nM
IC50 (second compound 0.316 µM): < 9.49 nM
IC50 (second compound 1 µM): < 9.49 nM
IC50 (second compound 3.16 µM): < 9.49 nM
IC50 (second compound 10 µM): < 9.49 nM
viability, T/C (second compound 0.0316 µM, first compound 0.00949 µM): 19.1%
viability, T/C (second compound 0.0316 µM, first compound 0.03 µM): 6.48%
viability, T/C (second compound 0.0316 µM, first compound 0.0949 µM): 7.9%
viability, T/C (second compound 0.0316 µM, first compound 0.3 µM): 9.31%
viability, T/C (second compound 0.0316 µM, first compound 0.949 µM): 7.71%
viability, T/C (second compound 0.0316 µM, first compound 3 µM): 5.65%
viability, T/C (second compound 0.1 µM, first compound 0.00949 µM): 23.8%
viability, T/C (second compound 0.1 µM, first compound 0.03 µM): 7.55%
viability, T/C (second compound 0.1 µM, first compound 0.0949 µM): 8.46%
viability, T/C (second compound 0.1 µM, first compound 0.3 µM): 7.94%
viability, T/C (second compound 0.1 µM, first compound 0.949 µM): 6.43%
viability, T/C (second compound 0.1 µM, first compound 3 µM): 6.33%
viability, T/C (second compound 0.316 µM, first compound 0.00949 µM): 18.3%
viability, T/C (second compound 0.316 µM, first compound 0.03 µM): 8.15%
viability, T/C (second compound 0.316 µM, first compound 0.0949 µM): 8.46%
viability, T/C (second compound 0.316 µM, first compound 0.3 µM): 9.54%
viability, T/C (second compound 0.316 µM, first compound 0.949 µM): 7.17%
viability, T/C (second compound 0.316 µM, first compound 3 µM): 6.23%
viability, T/C (second compound 1 µM, first compound 0.00949 µM): 24.1%
viability, T/C (second compound 1 µM, first compound 0.03 µM): 9.6%
viability, T/C (second compound 1 µM, first compound 0.0949 µM): 8.23%
viability, T/C (second compound 1 µM, first compound 0.3 µM): 7.23%
viability, T/C (second compound 1 µM, first compound 0.949 µM): 8.2%
viability, T/C (second compound 1 µM, first compound 3 µM): 6.6%
viability, T/C (second compound 3.16 µM, first compound 0.00949 µM): 22%
viability, T/C (second compound 3.16 µM, first compound 0.03 µM): 8.1%
viability, T/C (second compound 3.16 µM, first compound 0.0949 µM): 9.73%
viability, T/C (second compound 3.16 µM, first compound 0.3 µM): 8.26%
viability, T/C (second compound 3.16 µM, first compound 0.949 µM): 6.92%
viability, T/C (second compound 3.16 µM, first compound 3 µM): 6.09%
viability, T/C (second compound 10 µM, first compound 0.00949 µM): 18.3%
viability, T/C (second compound 10 µM, first compound 0.03 µM): 7.78%
viability, T/C (second compound 10 µM, first compound 0.0949 µM): 7.88%
viability, T/C (second compound 10 µM, first compound 0.3 µM): 7.81%
viability, T/C (second compound 10 µM, first compound 0.949 µM): 6.9%
viability, T/C (second compound 10 µM, first compound 3 µM): 8.24%
